Measured values as given in patent US8981149B2, “Compounds modulating the hedgehog protein signaling pathway, marked forms thereof, and applications” (Centre National De La Recherche Scientifique, priority 2011, dated 2015).

How the values were obtained:
human Smo receptor = target: T1, human Smo receptor (Homo sapiens, UniProt Q99835); test: Competition with bodipy-cyclopamine (BC) binding in HEK-hSmo cells
T1 construct: expressed in transfected cells
Experimental: Cells of the HEK293 line stably transfected with the human Smo receptor are used. The experiment was conducted according to the protocol described in Roudaut et al., Mol. Pharmacol. 79: 453-460, 2011.
At the end of the incubation, the cells are fixed and stained with DAPI, a fluorescent molecule with high affinity for DNA which makes it possible to visualize the nuclei in blue in fluorescence microscopy.

[1] = target: T2, human Smoothened receptor (Homo sapiens, UniProt Q99835); test: Inhibition of binding of 3H-(7d) to membranes of HEK-hSmo cells; settings: HEK-hSmo membranes
T2 construct: expressed in transfected cells
T2 sequence (Q99835 28-787): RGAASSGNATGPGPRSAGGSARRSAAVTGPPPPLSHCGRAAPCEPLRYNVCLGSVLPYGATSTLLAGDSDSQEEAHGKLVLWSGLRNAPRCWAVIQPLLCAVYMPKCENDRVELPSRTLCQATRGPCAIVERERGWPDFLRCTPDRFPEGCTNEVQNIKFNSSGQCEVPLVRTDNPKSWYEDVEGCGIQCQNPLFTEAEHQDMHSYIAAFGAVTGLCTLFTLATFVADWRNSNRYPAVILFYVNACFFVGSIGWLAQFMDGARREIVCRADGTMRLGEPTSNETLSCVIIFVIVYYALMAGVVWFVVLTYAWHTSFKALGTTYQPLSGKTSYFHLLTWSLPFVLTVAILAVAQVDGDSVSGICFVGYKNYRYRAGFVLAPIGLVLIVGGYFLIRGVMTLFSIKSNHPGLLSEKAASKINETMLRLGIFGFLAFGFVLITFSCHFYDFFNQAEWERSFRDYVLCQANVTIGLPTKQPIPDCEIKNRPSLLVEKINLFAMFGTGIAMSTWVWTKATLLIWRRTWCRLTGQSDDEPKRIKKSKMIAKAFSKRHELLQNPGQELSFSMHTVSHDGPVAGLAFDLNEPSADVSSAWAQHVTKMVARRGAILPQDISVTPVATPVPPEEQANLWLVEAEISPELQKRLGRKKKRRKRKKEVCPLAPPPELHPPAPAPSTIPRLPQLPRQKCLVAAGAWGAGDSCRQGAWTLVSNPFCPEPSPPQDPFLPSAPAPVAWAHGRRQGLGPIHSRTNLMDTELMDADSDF
Experimental: The binding test is carried out on membranes enriched with Smoothened receptor. Cells of the HEK-hSmo line were used for preparing these membranes. The cells are washed and recovered in iced PBS. After centrifugation at 100 g for 7 minutes at 4° C., the pellet is taken up in 10 times its volume of an iced buffer A (50 mM HEPES, pH 7.4, 1 mM EDTA) with addition of 10 μl of a cocktail of protease inhibitors (PEAK, Sigma) per ml of buffer, then it is homogenized using a Polytron grinding mill. After centrifugation at 500 g for 30 minutes at 4° C., which makes it possible to remove the nuclei from the cells, the supernatant is centrifuged again at 48 000 g for 45 min at 4° C. The pellet is taken up in 2 ml of buffer A with PEAK added, then the suspension is homogenized using a glass conical grinding mill and is passed through a 23 G needle. Finally, aliquots are placed in Eppendorf tubes and stored at −80° C. The concentration of total protein in the preparation is determined by Lowry's method using BSA for preparing the standard range.
The membranes are resuspended in a buffer (50 mM HEPES and 3 mM MgCl2) containing 0.2% of BSA. The tests of binding of ^3H-(7d) are carried out in polypropylene tubes. The membranes (2 μg of proteins) are incubated with the ^3H-(7d) in the presence or absence of the cold test compounds for 3 hours at 37° C. in a final volume of 400 μl. Incubation is stopped by immersing the tubes in iced water followed by rapid filtration (Brandel) through a glass fiber filtration membrane (GF/C) treated beforehand with 0.3% of polyethylenimine, which can reduce the nonspecific binding of the ^3H-(7d) to the filtration membrane. The radioactivity retained on the filter is measured in the presence of 3 ml of scintillating agent in a liquid scintillation counter.
In this experiment, the cold ligand competes with the radioactive ligand for binding to the receptor, and the affinity (Ki) of each cold ligand for the receptor can be analyzed based on the IC50 values deduced from the inhibition curves.

T1 sequence (Q99835 28-787): as above

SMILES: COc1cc(C(=O)NC(=N)Nc2ccc(C)c(NC(=O)c3ccc(CCc4ccccc4)cc3)c2)cc(OC)c1OC.Cl [Compound 7d, 3,4,5-trimethoxy-N—(N-(4-methyl-3-(4-phenethylbenzamido)phenyl)carbamimidoyl)benzamide hydrochloride]
- Block of the binding of BC to HEK-hSmo cells, in words (human Smo receptor; BC 5 nM, 2 hours): very similar and high
- IC50 (human Smo receptor; bodipy-cyclopamine (5 nM), HEK-hSmo cells, read-out: IC50 ± SEM, BC binding (4)): 8 ± 1 nM
- IC50 ([1]; 0.35 nM 3H-(7d), 3 hours at 37° C., read-out: IC50 ± SEM, binding of compound 3H-(7d)): 1.5 nM
- Ki ([1]; calculated from IC50, read-out: Ki ± SEM, binding of compound 3H-(7d)): 0.7 ± 0.1 nM
